Experimental data from article PMC7321065, “Discovery of New Schiff Bases Tethered Pyrazole Moiety: Design, Synthesis, Biological Evaluation, and Molecular Docking Study as Dual Targeting DHFR/DNA Gyrase Inhibitors with Immunomodulatory Activity” (Molecules, 2020).
Values after ≈ are worked out from the molar mass of the structure shown. Like-named read-outs stand apart in the source and are kept apart here.

Columns and labels:
S. aureus ATCC 33591 [1] = assay: Inhibition zone against MDRB, agar plate diffusion; assay type: cell-based
[2] = test system: hepatocellular carcinoma cell line (HepG2); assay: Antiproliferative activity, MTT assay; assay type: cell-based, human; settings: Homo sapiens, HepG2, 48 h, read-out: IC50 HepG-2
Experimental: (§1) 3-[4, 5-Dimethyl-2-thiazolyl)-2, 5-diphenyl-2 H-tetrazolium bromide (MTT) protocol is based on the cleavage of the tetrazolium salt by mitochondrial dehydrogenases in viable cells. Cells were dispensed in a 96 well sterile microplate (5 x 10^4 cells/well), and incubated at 37 °C with series of different concentrations, in DMSO, of each tested compound or Doxorubicin ® (positive control) for 48 h in a serum free medium prior to the MTT assay. After incubation, media were carefully removed, 40 µL of MTT (2.5 mg/mL) were added to each well and then incubated for an additional 4 h. The purple formazan dye crystals were solubilized by the addition of 200 µL of DMSO. The absorbance was measured at 590 nm using a SpectraMax® Paradigm® Multi-Mode microplate reader. The relative cell viability was expressed as the mean percentage of viable cells compared to the untreated control cells.
(§2) All experiments were conducted in triplicate and repeated in three different days. All the values were represented as mean ± SD. IC 50s were determined by probit analysis using SPSS software program (SPSS

[3] = test system: mammary gland breast cancer cell line (MCF-7); assay: Antiproliferative activity, MTT assay; assay type: cell-based, human; settings: Homo sapiens, MCF7, 48 h, read-out: IC50 MCF-7
Experimental: as §1, §2

Vero cells (ATCC CCL-81) = assay: Cytotoxicity on normal cells, MTT assay; assay type: cell-based, African green monkey; settings: healthy non-cancer cells
Experimental: as §1, §2

Enterococcus faecalis [4] = assay: Inhibition zone, agar plate diffusion; assay type: cell-based; settings: read-out: Inhibition zone (IZ)
Experimental: (§3) Antimicrobial activities of the newly formed Schiff bases (6a–d, 7a–d, 8a–d, and 9a–d) and reference drugs were evaluated against three Gram-positive, three Gram-negative, and two fungi strain at Al-Azhar University, Cairo, Egypt. The inhibition zones (IZ, in mm ± standard deviation) and the minimal inhibitory concentration (MIC) (μg/mL) were determined by the conventional paper disk diffusion method.
(§4) In Vitro Antimicrobial Activities
(§5) The antimicrobial activities inhibition zone (IZ, mm±standard deviation) of pyrazole Schiff bases ( 6a-d , 7a-d, 8a-d and 9a-d ) was measurement according to the agar plate diffusion method. Briefly, 100 µl of the […]
(§6) […] of each sample (at 0.5 mg/mL) was added to each well (10 mm diameter holes cut in the agar gel). The plates were incubated for 24 h at 37 °C (for bacteria and yeast) and for 72 h at 27 °C (for filamentous fungi), each test was repeated three times. After incubation, the microorganism's growth was observed. […]
(§7) drugs while Amphotericin B was used as standard antifungal drug. The resulting inhibition zone diameters were measured in millimeters and used as criterion for the antimicrobial activity. Solvent controls (DMSO) were included in every experiment as negative controls. DMSO was used for dissolving […]
(§8) the tested microorganisms. […]

Bacillus subtilis [5] = assay: Inhibition zone, agar plate diffusion; assay type: cell-based; settings: read-out: Inhibition zone (IZ)
Experimental: as §3, §4, §5, §6, §7, §8

Pseudomonas aeruginosa [6] = assay: Inhibition zone, agar plate diffusion; assay type: cell-based; settings: read-out: Inhibition zone (IZ)
Experimental: as §3, §4, §5, §6, §7, §8

Escherichia coli [7] = assay: Inhibition zone, agar plate diffusion; assay type: cell-based; settings: read-out: Inhibition zone (IZ)
Experimental: as §3, §4, §5, §6, §7, §8

Fusarium oxysporum [8] = assay: MIC/MFC, paper disk diffusion; assay type: cell-based; settings: Fusarium oxysporum
Experimental: as §3
(§9) In Vitro Antimicrobial Activities […]
(§10) DMSO was used for dissolving […]
(§11) the tested microorganisms.
(§12) The minimum inhibitory concentration (MIC), the minimum bactericidal concentration (MBC, µg/ml) and […]
(§13) and 9b) were determined by the conventional technique termed paper disk diffusion, by applying paper […]
(§14) Bacteria were grown on nutrient agar medium, while fungi and yeast were grown on Sabouraud agar medium. The purified streptomycin was dissolved in […]
(§15) inoculated with test organism. Growth inhibition was examined after 24 hr. from incubation at 37 °C for bacteria and after 72 hr. incubation at 27 °C for fungi and yeast. Each test was repeated three times. MIC was expressed as the lowest concentration inhibiting test organism’s growth. […]

Candida albicans [9] = assay: MIC/MFC, paper disk diffusion; assay type: cell-based; settings: Candida albicans
Experimental: as §3, §9, §10, §11, §12, §13, §14, §15

[10] = test system: P. aeruginosa ATCC BAA-2111; assay: Inhibition zone against MDRB, agar plate diffusion; assay type: cell-based
Staphylococcus aureus [11] = assay: Inhibition zone, agar plate diffusion; assay type: cell-based; settings: read-out: Inhibition zone (IZ)
Experimental: as §3, §4, §5, §6, §7, §8
(§16) Bacteria were grown on nutrient agar medium, while fungi and yeast were grown on Sabouraud agar medium. […]

Fusarium oxysporum [12] = assay: Inhibition zone, agar plate diffusion; assay type: cell-based; settings: read-out: Inhibition zone (IZ)
Experimental: as §3, §4, §5, §6, §7, §8, §16

Candida albicans [13] = assay: Inhibition zone, agar plate diffusion; assay type: cell-based; settings: read-out: Inhibition zone (IZ)
Experimental: as §3, §4, §5, §6, §7, §8, §16

Salmonella typhi [14] = assay: Inhibition zone, agar plate diffusion; assay type: cell-based; settings: Salmonella enterica, St, mm ± standard deviation, sample at 0.5 mg/mL, read-out: Inhibition zone (IZ)
Experimental: as §3, §4, §5, §6, §7, §8, §16

Staphylococcus aureus [15] = assay: MIC/MBC, paper disk diffusion; assay type: cell-based; settings: Staphylococcus aureus
Experimental: as §3, §9, §10, §11, §12, §13, §14, §15

Enterococcus faecalis [16] = assay: MIC/MBC, paper disk diffusion; assay type: cell-based
Experimental: as §3, §9, §10, §11, §12, §13, §14, §15

Salmonella typhi [17] = assay: MIC/MBC, paper disk diffusion; assay type: cell-based; settings: Salmonella enterica, S. typhi
Experimental: as §3, §9, §10, §11, §12, §13, §14, §15

Bacillus subtilis [18] = assay: MIC/MBC, paper disk diffusion; assay type: cell-based
Experimental: as §3, §9, §10, §11, §12, §13, §14, §15

Pseudomonas aeruginosa [19] = assay: MIC/MBC, paper disk diffusion; assay type: cell-based; settings: for MBC: P. aeruginosa
Experimental: as §3, §9, §10, §11, §12, §13, §14, §15

Escherichia coli [20] = assay: MIC/MBC, paper disk diffusion; assay type: cell-based; settings: Escherichia coli
Experimental: as §3, §9, §10, §11, §12, §13, §14, §15

E. coli ATCC BAA-196 [21] = assay: MIC/MBC against MDRB, paper disk diffusion; assay type: cell-based; settings: Escherichia coli, ATCCBAA196
Excerpt: (§17) The inhibition zone (IZ, mm±standard deviation) of pyrazole Schiff bases ( 6b, 7b, 7c, 8a, 8d and 9b) was
(§18) measurement according to the agar plate diffusion method against a panel of multidrug-resistant bacteria
(MDRB). […]

S. aureus ATCC 33591 [22] = assay: MIC/MBC against MDRB, paper disk diffusion; assay type: cell-based; settings: Staphylococcus aureus, ATCC33591
Excerpt: as §17, §18
(MDRB). […]

[23] = test system: P. aeruginosa ATCC BAA-2111; assay: MIC/MBC against MDRB, paper disk diffusion; assay type: cell-based; settings: Pseudomonas aeruginosa, ATCCBAA2111
Excerpt: as §17, §18
(MDRB). […]

[24] = test system: S. aureus ATCC 43300 (MRSA); assay: MIC/MBC against MDRB, paper disk diffusion; assay type: cell-based; settings: Staphylococcus aureus
Excerpt: as §17, §18
(MDRB). […]

E. coli ATCC BAA-196 [25] = assay: Inhibition zone against MDRB, agar plate diffusion; assay type: cell-based
[26] = test system: S. aureus ATCC 43300 (MRSA); assay: Inhibition zone against MDRB, agar plate diffusion; assay type: cell-based

COc1ccc(Nc2n[nH]c(N=Cc3c(C)nn(-c4ccccc4)c3Cl)c2C(=O)Nc2ccc(C)cc2)cc1 [7c, 5-((5-Chloro-3-methyl-1-phenyl-1H-pyrazol-4-yl)methyleneamino)-3-(p-methoxyphenylamino)-N-p-tolyl-1H-pyrazole-4-carboxamide]
Mean Diameter of Inhibition Zone against MDRB (S. aureus ATCC 33591 [1]): 21 ± 0.19 mm | IC50 [2]: 1.22 ± 0.23 µM | IC50 [3]: 3.24 ± 0.41 µM | IC50 (Vero cells (ATCC CCL-81); Chlorocebus sabaeus, Vero, read-out: IC50 Vero, MTT): > 120 µM | IC50 (Vero cells (ATCC CCL-81); read-out: IC50 Vero, MTT): 213.5 ± 0.57 µM | zone of inhibition at 500 µg/mL (Enterococcus faecalis [4]): 29 ± 0.17 mm | zone of inhibition at 500 µg/mL (Bacillus subtilis [5]): 32 ± 0.22 mm | zone of inhibition at 500 µg/mL (Pseudomonas aeruginosa [6]): 27 ± 0.73 mm | zone of inhibition at 500 µg/mL (Escherichia coli [7]): 30 ± 0.29 mm | MFC (Fusarium oxysporum [8]): 87.5 µg/mL (≈ 162 µM) | MIC (Fusarium oxysporum [8]): 55.5 µg/mL (≈ 103 µM) | MFC (Candida albicans [9]): 41.6 µg/mL (≈ 77.1 µM) | MIC (Candida albicans [9]): 31.2 µg/mL (≈ 57.9 µM) | Mean Diameter of Inhibition Zone against MDRB [10]: 22 ± 0.5 mm | zone of inhibition at 500 µg/mL (Staphylococcus aureus [11]): 33 ± 0.53 mm | zone of inhibition at 500 µg/mL (Fusarium oxysporum [12]): 22 ± 0.11 mm | zone of inhibition at 500 µg/mL (Candida albicans [13]): 27 ± 0.5 mm | zone of inhibition at 500 µg/mL (Salmonella typhi [14]): 29 ± 0.2 mm | MIC (Staphylococcus aureus [15]): 31.2 µg/mL (≈ 57.9 µM) | MIC (Enterococcus faecalis [16]): 7.81 µg/mL (≈ 14.5 µM) | MIC (Salmonella typhi [17]): 31.2 µg/mL (≈ 57.9 µM) | MBC (Salmonella typhi [17]; read-out: MBC): 56.2 µg/mL (≈ 104 µM) | Fold more potent than Tetracycline (MIC) (Bacillus subtilis [18]; B. subtilis): 3 fold | MBC (Bacillus subtilis [18]; B. subtilis): 18.5 µg/mL (≈ 34.3 µM) | MIC (Bacillus subtilis [18]; Bacillus subtilis): 9.25 µg/mL (≈ 17.1 µM) | MBC (Bacillus subtilis [18]; Bacillus subtilis, B. subtilis): 10.6 µg/mL (≈ 19.6 µM) | MBC (Pseudomonas aeruginosa [19]): 88.8 µg/mL (≈ 164 µM) | MIC (Pseudomonas aeruginosa [19]; Pseudomonas aeruginosa): 55.5 µg/mL (≈ 103 µM) | MBC (Pseudomonas aeruginosa [19]; Pseudomonas aeruginosa): 59.4 µg/mL (≈ 110 µM) | MIC (Escherichia coli [20]): 18.5 µg/mL (≈ 34.3 µM) | MBC (E. coli ATCC BAA-196 [21]): 14.8 µg/mL (≈ 27.5 µM) | MIC (E. coli ATCC BAA-196 [21]): 7.81 µg/mL (≈ 14.5 µM) | MBC (S. aureus ATCC 33591 [22]): 11.1 µg/mL (≈ 20.6 µM) | MIC (S. aureus ATCC 33591 [22]): 5.55 µg/mL (≈ 10.3 µM) | MBC [23]: 6.66 µg/mL (≈ 12.3 µM) | MIC [23]: 4.44 µg/mL (≈ 8.22 µM) | MBC [24]: 14.8 µg/mL (≈ 27.5 µM) | MIC [24]: 7.81 µg/mL (≈ 14.5 µM) | Mean Diameter of Inhibition Zone against MDRB (E. coli ATCC BAA-196 [25]): 21 ± 0.3 mm | Mean Diameter of Inhibition Zone against MDRB [26]: 17 ± 0.37 mm
